ChEMBL document CHEMBL5131469, “Design, synthesis and biological evaluation of novel procaine derivatives for intravenous anesthesia” (Bioorg Med Chem Lett, 2022)
Active and inactive are the calls of the source. The calls are words filed in the database; no cut-off is given here.

Assays:
[1] = Toxicity in mouse administered as single injection via caudal vein; conditions: in vivo, route iv
[2] = Lipophilicity, log D of the compound; assay type: physicochemical; conditions: octanol/water
[3] = Therapeutic index, ratio of LD50 for toxicity in mouse to ED50 for anesthetic activity in mouse; assay type: organism-based; conditions: in vivo, read-out: Ratio LD50/ED50
Mus musculus [4] = assay: Anesthetic activity in mouse assessed as loss of righting […] administered as single injection via caudal vein; assay type: functional; conditions: route iv
[5] = Solubility of the compound at pH 2; assay type: physicochemical; conditions: buffer
[6] = Stability in human liver microsomes measured within 60 mins; assay type: ADME, Microsome; conditions: 1 h
Rattus norvegicus = assay: Anesthetic activity in iv dosed rat assessed as loss of righting […] administered continuously; assay type: functional
[7] = molecular target: Voltage-gated inwardly rectifying potassium channel KCNH2 (Homo sapiens, UniProt Q12809); assay: Inhibition of human ERG
Voltage-gated inwardly rectifying potassium channel KCNH2, sequence (Q12809 whole entry): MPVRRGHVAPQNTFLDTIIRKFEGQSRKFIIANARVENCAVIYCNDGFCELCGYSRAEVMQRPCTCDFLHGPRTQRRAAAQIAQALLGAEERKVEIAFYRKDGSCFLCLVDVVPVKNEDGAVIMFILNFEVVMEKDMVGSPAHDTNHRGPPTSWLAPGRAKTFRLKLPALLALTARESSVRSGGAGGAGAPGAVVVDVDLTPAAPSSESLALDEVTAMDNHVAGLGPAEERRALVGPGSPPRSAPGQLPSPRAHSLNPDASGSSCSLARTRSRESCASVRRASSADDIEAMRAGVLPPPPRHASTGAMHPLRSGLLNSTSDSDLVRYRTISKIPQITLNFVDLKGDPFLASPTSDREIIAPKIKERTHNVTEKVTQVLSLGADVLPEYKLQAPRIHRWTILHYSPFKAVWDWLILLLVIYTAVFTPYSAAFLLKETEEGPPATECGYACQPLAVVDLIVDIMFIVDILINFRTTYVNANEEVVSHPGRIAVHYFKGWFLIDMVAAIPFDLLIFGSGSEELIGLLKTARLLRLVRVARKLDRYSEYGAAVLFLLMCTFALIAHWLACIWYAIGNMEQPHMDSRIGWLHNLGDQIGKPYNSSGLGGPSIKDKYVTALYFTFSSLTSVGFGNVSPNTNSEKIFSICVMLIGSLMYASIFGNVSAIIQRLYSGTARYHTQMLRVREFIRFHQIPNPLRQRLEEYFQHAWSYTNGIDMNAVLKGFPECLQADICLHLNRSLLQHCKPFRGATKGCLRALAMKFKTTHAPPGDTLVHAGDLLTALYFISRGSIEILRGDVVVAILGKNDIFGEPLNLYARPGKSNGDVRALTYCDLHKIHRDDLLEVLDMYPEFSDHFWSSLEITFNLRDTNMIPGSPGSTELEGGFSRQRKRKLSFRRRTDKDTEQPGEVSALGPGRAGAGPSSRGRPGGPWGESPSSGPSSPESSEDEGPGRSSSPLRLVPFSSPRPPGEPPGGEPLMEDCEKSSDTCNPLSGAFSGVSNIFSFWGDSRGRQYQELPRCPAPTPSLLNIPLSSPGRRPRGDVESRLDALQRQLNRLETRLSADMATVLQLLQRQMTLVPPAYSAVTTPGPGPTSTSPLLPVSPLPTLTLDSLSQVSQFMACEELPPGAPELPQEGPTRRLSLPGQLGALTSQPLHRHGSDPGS

[8] = Cardiotoxicity in iv dosed rat assessed as change in alpha-HBDH level administered continuously; assay type: toxicity, organism-based; conditions: in vivo
[9] = Cardiotoxicity in iv dosed rat assessed as change in CK-MB level administered continuously; assay type: toxicity, organism-based; conditions: in vivo
[10] = Therapeutic index, ratio of LD50 for toxicity in iv dosed rat to ED50 for anesthetic activity in iv dosed rat; assay type: organism-based; conditions: in vivo, read-out: Ratio LD50/ED50
[11] = Toxicity in iv dosed rat administered continuously; assay type: organism-based; conditions: in vivo
[12] = Toxicity in mouse assessed as adverse effect at 1.5 times ED50, iv; conditions: in vivo
[13] = Hepatotoxicity in iv dosed rat assessed as change in AST level administered continuously; assay type: toxicity, organism-based; conditions: in vivo
[14] = Nephrotoxicity in iv dosed rat assessed as change in creatinine level administered continuously; assay type: toxicity, organism-based; conditions: in vivo
HEK293 = assay: Reversible inhibition of human NR2B receptor expressed in HEK293 cells assessed as inhibition of L-glutamate-induced open-phase current at 500 uM in presence of glycine by whole-cell patch-clamp method relative to control; assay type: cell-based
[15] = Cardiotoxicity in iv dosed rat assessed as morphological change in heart administered continuously; assay type: toxicity, organism-based; conditions: in vivo
[16] = Hepatotoxicity in iv dosed rat assessed as change in ALT level administered continuously; assay type: toxicity, organism-based; conditions: in vivo
Mus musculus [17] = assay: Anesthetic activity in mouse assessed as reduction in recovery time of righting reflex at 1.5 times ED50, iv; assay type: functional, organism-based
[18] = Hepatotoxicity in iv dosed rat assessed as morphological change in liver administered continuously; assay type: toxicity, organism-based; conditions: in vivo
[19] = Cardiotoxicity in iv dosed rat assessed as change in LDH level administered continuously; assay type: toxicity, organism-based; conditions: in vivo
[20] = Nephrotoxicity in iv dosed rat assessed as morphological change in kidney administered continuously; assay type: toxicity, organism-based; conditions: in vivo
[21] = Nephrotoxicity in iv dosed rat assessed as change in urea level administered continuously; assay type: toxicity, organism-based; conditions: in vivo
[22] = Stability in plasma (unknown origin); assay type: ADME, cell-free; conditions: unidentified
[23] = Toxicity in iv dosed rat assessed as body weight loss administered continuously as infusion for 2 weeks; assay type: organism-based; conditions: in vivo, 336 h
[24] = Toxicity in iv dosed rat assessed as convulsion administered continuously; assay type: organism-based; conditions: in vivo
[25] = Toxicity in iv dosed rat assessed as cyanosis administered continuously; assay type: organism-based; conditions: in vivo
[26] = Toxicity in iv dosed rat assessed as irregular respiratory rhythm administered continuously; assay type: organism-based; conditions: in vivo
[27] = Toxicity in iv dosed rat assessed as muscle fibrillation administered continuously; assay type: organism-based; conditions: in vivo
[28] = Toxicity in iv dosed rat assessed as muscular rigidity administered continuously; assay type: organism-based; conditions: in vivo
[29] = Toxicity in mouse assessed as convulsion at 1.5 times ED50, iv; conditions: in vivo
[30] = Toxicity in mouse assessed as angular tension at 1.5 times ED50, iv; conditions: in vivo
[31] = Toxicity in mouse assessed as severe respiratory suppression at 1.5 times ED50, iv; conditions: in vivo
[32] = Toxicity in mouse assessed as ankylosis at 1.5 times ED50, iv; conditions: in vivo
[33] = Toxicity in mouse assessed as muscular rigidity at 1.5 times ED50, iv; conditions: in vivo

Compound	LD50 [1] [mg/kg]	logD [2]	selectivity ratio [3]	ED50 (Mus musculus [4]) [mg/kg]	further results
CCN(CCOC)CCOC(=O)c1ccc(N)cc1	60.3	0.96	1.52	39.6	
Nc1ccc(C(=O)OCCN2CCOCC2)cc1	365	0.54	2.46	148	
CC(C)N1CCN(CCOC(=O)c2ccc(N)cc2)CC1	58.6	0.92	< 1.5	52.8	
Nc1ccc(C(=O)OCCN2CCSCC2)cc1	126	1.58	2.33	54	solubility [5]: Insoluble
COCCN(CCOC)CCOC(=O)c1ccc(N)cc1	104	0.83	1.89	55.2	
CCN(CCO)CCOC(=O)c1ccc(N)cc1	115	0.47	< 1.5	90.2	
CC1CN(CCOC(=O)c2ccc(N)cc2)CC(C)O1 (stereo unspecified)	159	1.24	2.68	59.3	Stability [6]: Stable; ED50 (Rattus norvegicus): 66 mg/kg; IC50 [7]: > 30 µM; Activity [8]: Non-Toxic; Activity [9]: Non-Toxic; selectivity ratio [10]: 2.73; LD50 [11]: 180 mg/kg; Activity [12]: Toxic; Activity [13]: Non-Toxic; Activity [14]: Non-Toxic; inhibition (HEK293): > 80%; Activity [15]: Non-Toxic; Activity [16]: Non-Toxic; Activity (Mus musculus [17]): Active; Activity [18]: Non-Toxic; Activity [19]: Non-Toxic; Activity [20]: Non-Toxic; Activity [21]: Non-Toxic; Stability [22]: Unstable; Activity [23]: Non-Toxic
Nc1ccc(C(=O)OCCN(CCO)CCO)cc1	160	-0.19	< 1.5	128	
CCN(CC)CCOC(=O)c1ccc(N)cc1 [PROCAINE]	70.5	1.07	1.65	42.8	ED50 (Rattus norvegicus): 50.4 mg/kg; Activity [8]: Non-Toxic; Activity [24]: Toxic; Activity [25]: Toxic; Activity [26]: Toxic; Activity [27]: Toxic; Activity [9]: Non-Toxic; selectivity ratio [10]: 1.56; LD50 [11]: 78.8 mg/kg; Activity [28]: Toxic; Activity [12]: Toxic; Activity [13]: Non-Toxic; Activity [14]: Non-Toxic; Activity [15]: Non-Toxic; Activity [16]: Non-Toxic; Activity [18]: Non-Toxic; Activity [19]: Non-Toxic; Activity [20]: Non-Toxic; Activity [21]: Non-Toxic; Activity [23]: Non-Toxic
CC1CC(C)CN(CCOC(=O)c2ccc(N)cc2)C1 (stereo unspecified)	68.5	3.2	2.02	33.9	Activity [29]: Toxic; Activity [30]: Toxic; Activity [31]: Toxic; Activity [32]: Toxic
CC1COCCN1CCOC(=O)c1ccc(N)cc1 (stereo unspecified)	253	0.62	2.13	119	
Nc1ccc(C(=O)OCCN2CC[S+]([O-])CC2)cc1	110	1.55	2.57	42.7	solubility [5]: Insoluble
CCN1CCN(CCOC(=O)c2ccc(N)cc2)CC1	64.3	0.81	< 1.5	56	
CC(C)(C)N1CCN(CCOC(=O)c2ccc(N)cc2)CC1	78.4	1.15	1.86	42.2	
CC1COCC(C)N1CCOC(=O)c1ccc(N)cc1 (stereo unspecified)	399	0.42	2.49	160	
CN1CCN(CCOC(=O)c2ccc(N)cc2)CC1	100	0.43	< 1.5	84.2	
Nc1ccc(C(=O)OCCN2CCS(=O)(=O)CC2)cc1	115	1.63	2.53	45.5	solubility [5]: Insoluble
CC1CN(CCOC(=O)c2ccc(N)cc2)CCO1 (stereo unspecified)	188	1	2.08	90.2	Activity [33]: Toxic; Activity (Mus musculus [17]): Active
